In PubChem BioAssay (NCI):
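Dose response: 5 concentrations. Exposure: 48 h. Format: 96-well plates. Endpoint: linear interpolation; highest concentration if not reached. The concentration for 50% growth inhibition is given as GI50. TGI denotes the concentration required for complete inhibition of growth.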

Key:
Test in all cases: inhibition of tumour cell growth, NCI panel, 48 h
RXF 393 renal = test system: RXF 393 renal
HT29 colon = test system: HT29 colon
K-562 leukemia = test system: K-562 leukemia
NCI-H23 lung = test system: NCI-H23 lung
OVCAR-4 ovarian = test system: OVCAR-4 ovarian
DU-145 prostate = test system: DU-145 prostate
UACC-62 melanoma = test system: UACC-62 melanoma
OVCAR-5 ovarian = test system: OVCAR-5 ovarian
A549 NSCLC = test system: A549 NSCLC
U251 CNS = test system: U251 CNS

| SMILES | GI50 (RXF 393 renal) [µM] | TGI (RXF 393 renal) [µM] | GI50 (HT29 colon) [µM] | TGI (HT29 colon) [µM] | GI50 (K-562 leukemia) [µM] | TGI (K-562 leukemia) [µM] | GI50 (NCI-H23 lung) [µM] | TGI (NCI-H23 lung) [µM] | GI50 (OVCAR-4 ovarian) [µM] | TGI (OVCAR-4 ovarian) [µM] | GI50 (DU-145 prostate) [µM] | TGI (DU-145 prostate) [µM] | GI50 (UACC-62 melanoma) [µM] | TGI (UACC-62 melanoma) [µM] | GI50 (OVCAR-5 ovarian) [µM] | TGI (OVCAR-5 ovarian) [µM] | GI50 (A549 NSCLC) [µM] | TGI (A549 NSCLC) [µM] | GI50 (U251 CNS) [µM] | TGI (U251 CNS) [µM] |
| --- | --- | --- | --- | --- | --- | --- | --- | --- | --- | --- | --- | --- | --- | --- | --- | --- | --- | --- | --- | --- |
| CSC(=NC#N)S/C=C/C(=O)c1ccccc1 | 31.1 | 79 | 37.3 | > 100 | 32.7 | > 100 | 23.8 | 58.8 | > 100 | > 100 | 20.6 | 46.3 | 33.4 | > 100 | 62 | > 100 | 90.6 | > 100 | 40.3 | > 100 |
| CCCCOC(=O)c1ccc(N)cc1 | > 100 | > 100 | > 100 | > 100 | 6.66 | > 100 | > 100 | > 100 | > 100 | > 100 | > 100 | > 100 | 17.9 | > 100 | 34.8 | > 100 | 32.3 | > 100 | > 100 | > 100 |
| COc1cc(Oc2c(C)c(Cl)c(OC)c(Cl)c2OC)c2c(c1Cl)COC2=O |  | > 100 |  | > 100 |  | 8.51 |  | > 100 |  | > 100 |  | > 100 |  | > 100 |  | > 100 |  | > 100 |  | > 100 |
| COc1ccc(C=Nc2c(C(=O)Nc3cccc(Cl)c3C)sc3nc(C)c(C(=O)/C=C/c4ccc(OC)cc4)cc23)cc1 | 0.163 | 0.906 | 0.306 | > 50 | 0.259 | > 50 | 0.917 | 17.1 |  | > 50 | 0.638 | 14.6 | 0.312 | > 23.1 | 2.04 | > 50 | 1.61 | > 50 | 1.56 | 18.4 |
| Cc1c2ccn(O)cc2c(C)c2c1nc1ccccc12 |  | 22.6 |  | > 100 |  | > 81.4 |  | 30.2 |  | > 100 |  | > 100 |  | 41.6 |  | 53.5 |  | > 100 |  | 16.7 |
